Results taken from patent publication US11981686B2, “Urea compound having substituent” (DAIICHI SANKYO COMPANY, LIMITED, priority 2019, dated 2024).

Target: SIRT6 enzyme (Homo sapiens, UniProt Q8N6T7)
Assay: Measurement of deacetylation activity (SIRT6, AlphaLISA, H3K9(Ac) peptide)
Assay type: biochemical
Conditions: SIRT6 25 ng/mL, H3K9(Ac) biotin peptide 2 nM, NAD 10 μM, room temperature 30 minutes, duplicate
How it was run: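 Activation read as EC150, the concentration giving 150% activity relative to enzyme/no-enzyme DMSO controls, via variable-slope fit. Deacetylation of 2 nM biotinylated H3K9(Ac) peptide with 10 μM NAD+ by 25 ng/mL SIRT6 ran 30 min at room temperature, pH 8.0, then AlphaLISA detection of unmodified H3K9.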

SIRT6 enzyme, sequence (Q8N6T7 whole entry, species assumed): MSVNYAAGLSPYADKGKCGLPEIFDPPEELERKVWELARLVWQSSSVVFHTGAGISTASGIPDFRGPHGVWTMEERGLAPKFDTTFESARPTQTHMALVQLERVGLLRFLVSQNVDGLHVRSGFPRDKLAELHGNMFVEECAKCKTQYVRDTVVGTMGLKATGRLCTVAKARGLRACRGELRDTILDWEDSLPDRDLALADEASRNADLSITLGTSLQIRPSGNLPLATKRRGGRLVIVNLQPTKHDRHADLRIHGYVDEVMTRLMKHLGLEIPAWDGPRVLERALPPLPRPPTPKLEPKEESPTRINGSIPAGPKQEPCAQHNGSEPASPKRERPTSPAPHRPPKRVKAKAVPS

Compound	EC150 (the concentration of the compound showing a relative enzyme activity of 150%) [μm]
O=C(Nc1nc2c(s1)[C@@H]1COC[C@H](C2)N1c1ncc(-c2cccc(OC(F)F)n2)o1)N[C@H]1CC[C@H](O)CC1 [Example 176, N-[(4S,8S)-10-{5-[6-(difluoromethoxy)pyridin-2-yl]-1,3-oxazol-2-yl}-4,7,8,9-tetrahydro-5H-4,8-epiminooxocino[5,4-d][1,3]thiazol-2-yl]-N′-[(1r,4r)-4-hydroxycyclohexyl]urea]	0.33
O=C(NCc1ccnc(O)c1)Nc1nc2c(s1)[C@@H]1COC[C@H](C2)N1c1ncc(-c2cccc(OC(F)F)n2)o1 [Example 177, N-[(4S,8S)-10-{5-[6-(difluoromethoxy)pyridin-2-yl]-1,3-oxazol-2-yl}-4,7,8,9-tetrahydro-5H-4,8-epiminooxocino[5,4-d][1,3]thiazol-2-yl]-N′-[(2-hydroxypyridin-4-yl)methyl]urea]	0.28
Cn1ccc(CNC(=O)Nc2nc3c(s2)[C@@H]2COC[C@H](C3)N2c2ncc(-c3cccc(OC(F)F)n3)o2)cc1=O [Example 178, N-[(4S,8S)-10-{5-[6-(difluoromethoxy)pyridin-2-yl]-1,3-oxazol-2-yl}-4,7,8,9-tetrahydro-5H-4,8-epiminooxocino[5,4-d][1,3]thiazol-2-yl]-N′-[(1-methyl-2-oxo-1,2-dihydropyridin-4-yl)methyl]urea]	0.1
O=C(NCC1(O)CC1)Nc1nc2c(s1)[C@@H]1COC[C@H](C2)N1c1ncc(-c2cccc(OC(F)F)n2)o1 [Example 179, N-[(4S,8S)-10-{5-[6-(difluoromethoxy)pyridin-2-yl]-1,3-oxazol-2-yl}-4,7,8,9-tetrahydro-5H-4,8-epiminooxocino[5,4-d][1,3]thiazol-2-yl]-N′-[(1-hydroxycyclopropyl)methyl]urea]	0.72
O=C(Nc1nc2c(s1)[C@@H]1COC[C@H](C2)N1c1ncc(-c2cccc(OC(F)F)n2)o1)NC1CCS(=O)(=O)CC1 [Example 180, N-[(4S,8S)-10-{5-[6-(difluoromethoxy)pyridin-2-yl]-1,3-oxazol-2-yl}-4,7,8,9-tetrahydro-5H-4,8-epiminooxocino[5,4-d][1,3]thiazol-2-yl]-N′-(1,1-dioxo-1λ^6 thian-4-yl)urea]	0.14
O=C(Nc1nc2c(s1)[C@@H]1COC[C@H](C2)N1c1ncc(-c2cccc(OC(F)F)n2)o1)NC1(CO)CC1 [Example 181, N-[(4S,8S)-10-{5-[6-(difluoromethoxy)pyridin-2-yl]-1,3-oxazol-2-yl}-4,7,8,9-tetrahydro-5H-4,8-epiminooxocino[5,4-d][1,3]thiazol-2-yl]-N′-[1-(hydroxymethyl)cyclopropyl]urea]	0.53
CC(=O)N1CC[C@@H](NC(=O)Nc2nc3c(s2)[C@@H]2COC[C@H](C3)N2c2ncc(-c3cccc(OC(F)F)n3)o2)C1 [Example 182, N-[(3R)-1-acetylpyrrolidin-3-yl]-N′-[(4S,8S)-10-{5-[6-(difluoromethoxy)pyridin-2-yl]-1,3-oxazol-2-yl}-4,7,8,9-tetrahydro-5H-4,8-epiminooxocino[5,4-d][1,3]thiazol-2-yl]urea]	0.16
CC(=O)N1CC(NC(=O)Nc2nc3c(s2)[C@@H]2COC[C@H](C3)N2c2ncc(-c3cccc(OC(F)F)n3)o2)C1 [Example 183, N-(1-acetylazetidin-3-yl)-N′-[(4S,8S)-10-{5-[6-(difluoromethoxy)pyridin-2-yl]-1,3-oxazol-2-yl}-4,7,8,9-tetrahydro-5H-4,8-epiminooxocino[5,4-d][1,3]thiazol-2-yl]urea]	0.24
COc1cccc(-c2cnc(N3[C@@H]4COC[C@H]3c3sc(NC(=O)NCC(C)(C)O)nc3C4)o2)n1 [Example 184, N-(2-hydroxy-2-methylpropyl)-N′-{(4S,8S)-10-[5-(6-methoxypyridin-2-yl)-1,3-oxazol-2-yl]-4,7,8,9-tetrahydro-5H-4,8-epiminooxocino[5,4-d][1,3]thiazol-2-yl}urea]	0.91
COc1cccc(-c2cnc(N3[C@@H]4COC[C@H]3c3sc(NC(=O)N[C@@H]5CCOC5)nc3C4)o2)n1 [Example 185, N-{(4S,8S)-10-[5-(6-methoxypyridin-2-yl)-1,3-oxazol-2-yl]-4,7,8,9-tetrahydro-5H-4,8-epiminooxocino[5,4-d][1,3]thiazol-2-yl}-N′-[(3R)-oxolan-3-yl]urea]	0.4
COc1cccc(-c2cnc(N3[C@@H]4COC[C@H]3c3sc(NC(=O)NC5CCOCC5)nc3C4)o2)n1 [Example 186, N-{(4S,8S)-10-[5-(6-methoxypyridin-2-yl)-1,3-oxazol-2-yl]-4,7,8,9-tetrahydro-5H-4,8-epiminooxocino[5,4-d][1,3]thiazol-2-yl}-N′-oxan-4-ylurea]	0.48
COc1cccc(-c2cnc(N3[C@@H]4COC[C@H]3c3sc(NC(=O)N[C@H]5CC[C@@H](O)CC5)nc3C4)o2)n1 [Example 187, N-[(1s,4s)-4-hydroxycyclohexyl]-N′-{(4S,8S)-10-[5-(6-methoxypyridin-2-yl)-1,3-oxazol-2-yl]-4,7,8,9-tetrahydro-5H-4,8-epiminooxocino[5,4-d][1,3]thiazol-2-yl}urea]	0.64
COc1cccc(-c2cnc(N3[C@@H]4COC[C@H]3c3sc(NC(=O)N[C@H]5CC[C@H](O)CC5)nc3C4)o2)n1 [Example 188, N-[(1r,4r)-4-hydroxycyclohexyl]-N′-{(4S,8S)-10-[5-(6-methoxypyridin-2-yl)-1,3-oxazol-2-yl]-4,7,8,9-tetrahydro-5H-4,8-epiminooxocino[5,4-d][1,3]thiazol-2-yl}urea]	0.4
COc1ccc2oc(N3CCc4nc(NC(=O)N[C@H](C)CO)sc4C3)nc2c1 [Example 189, N-[(2R)-1-hydroxypropan-2-yl]-N′-[5-(5-methoxy-1,3-benzoxazol-2-yl)-4,5,6,7-tetrahydro[1,3]thiazolo[5,4-c]pyridin-2-yl]urea]	0.38
COc1ccc2oc(N3Cc4sc(NC(=O)NCC(C)(C)O)nc4CC3(C)C)nc2c1 [Example 190, N-(2-hydroxy-2-methylpropyl)-N′-[5-(5-methoxy-1,3-benzoxazol-2-yl)-6,6-dimethyl-4,5,6,7-tetrahydro[1,3]thiazolo[5,4-c]pyridin-2-yl]urea]	1.7
C[C@H](CO)NC(=O)Nc1nc2c(s1)CN(c1nccc(C3CCCOC3)n1)CC2 (stereo partly drawn) [Example 191, N-[(2R)-1-hydroxypropan-2-yl]-N′-{5-[4-(oxan-3-yl)pyrimidin-2-yl]-4,5,6,7-tetrahydro[1,3]thiazolo[5,4-c]pyridin-2-yl}urea]	1.2
O=C(Nc1nc2c(s1)CN(c1nccc(C3CCCOC3)n1)CC2)N[C@H]1C[C@H](O)C1 (stereo partly drawn) [Example 192, N-[(1r,3r)-3-hydroxycyclobutyl]-N′-{5-[4-(oxan-3-yl)pyrimidin-2-yl]-4,5,6,7-tetrahydro[1,3]thiazolo[5,4-c]pyridin-2-yl}urea]	0.44
COc1nc(-c2cnc(N3[C@@H]4COC[C@H]3c3sc(NC(=O)N[C@H](C)CO)nc3C4)o2)ccc1C [Example 193, N-[(2R)-1-hydroxypropan-2-yl]-N′-{(4S,8S)-10-[5-(6-methoxy-5-methylpyridin-2-yl)-1,3-oxazol-2-yl]-4,7,8,9-tetrahydro-5H-4,8-epiminooxocino[5,4-d][1,3]thiazol-2-yl}urea]	1.8
